Here are results for 3 compounds from US20250353891A1 (MEDIMMUNE LIMITED, priority 2022, published 2025).

pEC50: −log10 of the molar value. Where two headings read alike, the source gives them in different places. Starred links: 1 amine or outer side, 2 acyl side, 3 side chain; linkers in the order of their positions; H or OH if unused. Non-standard residues stand in square brackets, D forms with d. Residues, ends and D or L forms follow the SMILES beside them. Groups on a side chain read outwards from the residue. *: point of attachment. C20 diacid = O=C(O)CCCCCCCCCCCCCCCCCCC(=O)*; Dip = N[C@H](C(=O)O)C(c1ccccc1)c1ccccc1; γGlu = O=C(O)[C@H](CCC(=O)[*:2])N[*:1]; Stearoyl = CCCCCCCCCCCCCCCCCC(=O)*; Palmitoyl = CCCCCCCCCCCCCCCC(=O)*; αMeF = C[C@](N)(Cc1ccccc1)C(=O)O; PEG4 = NCCOCCOCCOCCOCCC(=O)O; PEG2 = NCCOCCOCCC(=O)O; AEEA = NCCOCCOCC(=O)O; Aib = CC(C)(N)C(=O)O

A short description of data set [1]: Mouse acute food intake study. As to conditions: male C57Bl/6 mice, s.c., dose 10 nmol/kg, cumulative food intake at 24 hr vs vehicle. Type of data set: in vivo. The procedure, abridged:
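Peptide or vehicle went subcutaneously (5 mL/kg) to 6-8 h-fasted male C57Bl/6 mice shortly before the dark phase, with groups balanced on body weight and 24-hour intake. Cumulative food consumption was derived from 48 h of automated BioDaq monitoring with free food and water access.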

A short description of data set [2]: Proteolytic resistance to FasSSIF/Pancreatin. It counts as in vitro ADME. To be noted: simulated intestinal fluid. The protocol: A fresh suspension of FasSSIF/P (Fasted-State Simulated Intestinal Fluid+USP Pancreatin®) was prepared according to that described by Galia, Nicolaides, Hörter, Löbenberg, Reppas and Dressman: Pharm. Res. 15 (1998) 698-705, and USP XL requirements. The resulting preparation was used immediately without storage.
Peptide for evaluation (1.0 mg) was dissolved in pre-warmed FasSSIF without Pancreatin® (200 μL). To this fresh FasSSIF/Pancreatin® (100 μL) was added to initiate potential proteolysis. Following momentary vortexing of the reaction tube the mixture was incubated at 37° C. in a thermostatic water bath for the duration of the experiment. 25 μL aliquot of the co-incubated peptide-enzyme mixture was periodically withdrawn (t=0, 5, 10 15 and 30 min) and quenched immediately by addition to a solution of 10% TFA in 1:1 water/acetonitrile (75 μL) to arrest proteolytic activity. Quenched samples were centrifuged (7800 RPM, 3 mins) to pellet solids and 10 μL aliquots of the supernatant solution were analyzed using analytical RP-HPLC as follows: Analytical RP-HPLC method: Agilent Polaris C8-A column (4.6×100 mm, 3 micron) eluted with a linear binary gradient of 10-90% MeCN (0.1% TFA v/v) in water (0.1% TFA v/v) over either 10 or 15 mins at 1.5 mL min^−1 at 40° C. with detection by UV absorption at 210 nm. Manual integration (AUC) allowed estimation of remaining intact peptide over the time course of the experiment.

The subject of data set [3] is GLP-1R knockout (KO) mice. In words: Glucose change in GLP-1R knockout mice. Type of data set: in vivo, mouse. As to conditions: GLP-1R KO mice, s.c., 120 min vs 0 min. The procedure, abridged:
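GLP-1R knockout mice (n=4-8/group, sorted by body weight) were fasted 2 h, and in some studies pretreated with octreotide 10 mg/kg 30 min before peptide injection. Mice were reused up to 3 times with at least 1-week wash-out.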

The next data set relates to wildtype (WT) mice. The data set can be described thus: Glucose change in wildtype mice. To be noted: s.c., 120 min vs 0 min. It counts as in vivo, mouse. The procedure, abridged: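 Wildtype mice aged 8-14 weeks, fasted 2 h, sometimes pre-treated with octreotide 10 mg/kg 30 min before peptide injection. Blood glucose by glucometer at -30, 0, 30, 60, 120, 180, 240 and 360 min; n=4-8/group, mice reused up to 3 times with ≥1 week wash-out.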

In data set [4] the target is human GLP-1 receptor (hGLP-1R) (Homo sapiens, UniProt P43220). In words: cAMP production (HTRF) in CHO cells expressing hGLP-1R. To be noted: for pEC50: geometric mean, read-out: hGLP-1R EC50; for % Relative Potency Ratio: % GLP-1R activity relative to GLP-1 / % GlucR activity relative to glucagon. Further details: expressed in transfected cells. It counts as cell-based. The procedure, abridged: (§1)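 Cells were resuspended in assay buffer at batch-optimized density, typically 1×10^5 cells/mL for hGLP-1R and 2×10^5 cells/mL for hGCGR. After 30 min incubation at room temperature with compound, cAMP was measured by two-step HTRF. EC50 values came from 4-parameter logistic fits of % Delta F.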
In general terms: Changes in cAMP serve as a functional read-out for many G protein-coupled receptors.

Data set [5] addresses human glucagon receptor (hGCGR) (Homo sapiens, UniProt P47871). In words: cAMP production (HTRF) in CHO cells expressing hGCGR. Type of data set: cell-based. Further details: expressed in transfected cells. As to conditions: geometric mean, read-out: hGluc-R EC50. The procedure, abridged: as §1
A short description of data set [6]: Proteolytic resistance to FasSSGF containing porcine pancreatic pepsin. It counts as in vitro ADME. As to conditions: pig, simulated gastric fluid. The procedure: Stimulated Gastric Fluid (FasSSGF) Containing Porcine Pancreatic Pepsin Lyophilized porcine pancreatic pepsin (Sigma: P7012) was reconstituted to 0.5 mg/mL (˜2500 units/mL) in freshly prepared FasSSGF (Biorelevant media) to give the enzyme stock solution. Peptide stock solution was prepared to a concentration of 250 μM (˜1.0 mg/mL) in FasSSGF. 200 μL ([…], ˜250 units) of pepsin stock solution was added to 200 μL of peptide solution (1.0 mg/mL, ˜100 μg of peptide, ˜25 nmoles) and the mixture was co-incubated in a temperature-regulated incubator at 37° C. for the duration of the experiment. 30 μL aliquot of the peptide-enzyme mixture was periodically withdrawn (t=0, 5, 10, 15, and 30 min) and quenched immediately by addition of 80 μL of 0.1M ammonium bicarbonate solution in water/acetonitrile (4:1, pH 8) to arrest proteolytic activity. 30 μL aliquot was analyzed by analytical RP-HPLC. Analytical RP-HPLC method: Agilent Polaris C8-A column (4.6×100 mm, 3 micron) eluted with a linear binary gradient of 10-90% MeCN (0.1% TFA v/v) in water (0.1% TFA v/v) over either 10 or 15 mins at 1.5 mL min-1 at 40° C. with detection by UV absorption at 210 nm. Manual integration (AUC) allowed estimation of remaining intact peptide over the time course of the experiment.

Setting [7] is: 3 nmol/kg, no somatostatin pretreatment.
The mark [8] stands for this setting: Table 6, peptides modified at position 17, cAMP in CHO hGLP-1R cells.
Where [9] appears, read: Table 6, peptides modified at position 17, cAMP in CHO hGCGR cells.
Where [10] appears, read: 10 nmol/kg, somatostatin pretreatment (octreotide) 30 min prior to cpd.
The mark [11] stands for this setting: 30 nmol/kg, somatostatin pretreatment (octreotide) 30 min prior to cpd.

Chain of human GLP-1 receptor (hGLP-1R) (P43220 24-463): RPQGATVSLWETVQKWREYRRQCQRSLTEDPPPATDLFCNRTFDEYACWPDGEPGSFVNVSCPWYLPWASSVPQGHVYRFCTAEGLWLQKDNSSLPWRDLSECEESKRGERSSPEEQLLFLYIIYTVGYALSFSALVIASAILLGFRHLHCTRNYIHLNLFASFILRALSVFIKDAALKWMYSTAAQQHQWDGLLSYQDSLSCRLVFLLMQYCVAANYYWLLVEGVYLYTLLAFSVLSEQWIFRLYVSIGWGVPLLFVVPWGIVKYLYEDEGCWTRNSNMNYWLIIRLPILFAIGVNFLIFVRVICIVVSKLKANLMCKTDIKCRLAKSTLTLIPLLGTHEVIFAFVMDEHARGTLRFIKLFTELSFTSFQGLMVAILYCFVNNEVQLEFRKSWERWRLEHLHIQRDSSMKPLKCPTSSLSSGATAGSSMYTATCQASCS
Chain of human glucagon receptor (hGCGR) (P47871 26-477): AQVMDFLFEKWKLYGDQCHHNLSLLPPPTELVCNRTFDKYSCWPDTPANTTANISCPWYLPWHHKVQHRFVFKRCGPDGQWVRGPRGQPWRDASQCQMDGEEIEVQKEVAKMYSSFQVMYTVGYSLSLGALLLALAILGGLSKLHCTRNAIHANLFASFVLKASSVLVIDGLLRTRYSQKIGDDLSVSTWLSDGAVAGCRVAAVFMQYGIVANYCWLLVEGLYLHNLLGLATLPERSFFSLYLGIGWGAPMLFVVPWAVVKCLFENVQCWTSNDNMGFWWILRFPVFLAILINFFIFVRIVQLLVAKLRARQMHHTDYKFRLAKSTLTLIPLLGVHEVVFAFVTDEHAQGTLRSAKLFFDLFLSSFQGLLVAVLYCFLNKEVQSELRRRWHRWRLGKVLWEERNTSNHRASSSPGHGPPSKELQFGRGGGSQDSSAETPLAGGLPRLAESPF

The term fraction remaining denotes what is left of the initial amount, in per cent. Read a low fraction remaining as more turnover. By pEC50 is commonly meant the EC50 on a negative log10 scale, so that one unit is a factor of ten. For the compound `CCCCCCCCCCCCCCCC(=O)N[C@@H](CCC(=O)N[C@@H](CCC(=O)NCCOCCOCCOCCOCCC(=O)NCCCC[C@H](NC(=O)[C@H](CO)NC(=O)[C@H](CC(=O)O)NC(=O)[C@H](CC(C)C)NC(=O)[C@@H](NC(=O)[C@H](CCCCN)NC(=O)[C@H](CO)NC(=O)[C@@H](NC(=O)[C@H](CC(=O)O)NC(=O)[C@H](CO)NC(=O)[C@@H](NC(=O)[C@](C)(Cc1ccccc1)NC(=O)[C@H](CO)NC(=O)CNC(=O)[C@H](CCC(N)=O)NC(=O)C(C)(C)NC(=O)[C@@H](N)Cc1c[nH]cn1)[C@@H](C)O)C(C)C)C(c1ccccc1)c1ccccc1)C(=O)N[C@@H](CCCNC(=N)N)C(=O)N[C@@H](C)C(=O)N[C@@H](CCC(N)=O)C(=O)N[C@@H](CC(=O)O)C(=O)N[C@@](C)(Cc1ccccc1)C(=O)N[C@H](C(=O)N[C@@H](CCC(=O)O)C(=O)NC(C)(C)C(=O)N[C@@H](CC(C)C)C(=O)N[C@@H](CCC(=O)O)C(=O)N[C@@H](C)C(=O)NCC(=O)NCC(N)=O)C(C)C)C(=O)O)C(=O)O` [Peptide 43] (H-H[Aib]QGS[αMeF]TSDVSK[Dip]LDSK([PEG4-γGlu-γGlu-Palmitoyl])RAQD[αMeF]VE[Aib]LEAGG-NH2; N-terminus assumed), the “24 hr % Vehicle Food Intake” value in data set [1] came to 53.2%. In data set [2], this compound returned an amount remaining at 5 min, 3.3 mg/mL of 83%; a share remaining at 10 min, 3.3 mg/mL of 33%; a share remaining at 0.25 h, 3.3 mg/mL of 29%; an amount remaining at 0.5 h, 3.3 mg/mL of 19%. For the same compound, the “GLP-1R KO % glucose change 120 min” value in data set [3] (setting [7]) is 63.9%. The “WT % glucose change 120 min” value with wildtype (WT) mice (setting [7]) is reported as −56.0%. The pEC50 in data set [4] (setting [8]) was 11.72. In addition, the “% Relative Potency Ratio” value in data set [4] (Table 6) is listed as 5.8. The negative-log EC50 (pEC50) in data set [5] (setting [9]) was 11.26.
Take `CC[C@H](C)[C@H](NC(=O)[C@H](Cc1c[nH]c2ccccc12)NC(=O)[C@H](CCCCNC(=O)COCCOCCNC(=O)COCCOCCNC(=O)CC[C@H](NC(=O)CCCCCCCCCCCCCCCCCCC(=O)O)C(=O)O)NC(=O)[C@@H](NC(=O)[C@H](Cc1ccccc1)NC(=O)[C@H](CC(=O)O)NC(=O)[C@H](CCC(N)=O)NC(=O)[C@H](C)NC(=O)[C@H](C)NC(=O)[C@H](CCCNC(=N)N)NC(=O)[C@H](CO)NC(=O)[C@H](CC(=O)O)NC(=O)[C@H](CC(C)C)NC(=O)[C@](C)(Cc1ccccc1)NC(=O)[C@H](CCCCN)NC(=O)[C@H](CO)NC(=O)[C@@H](NC(=O)[C@H](CC(=O)O)NC(=O)[C@H](CO)NC(=O)[C@@H](NC(=O)[C@](C)(Cc1ccccc1)NC(=O)[C@H](CO)NC(=O)CNC(=O)[C@H](Cc1c[nH]cn1)NC(=O)C(C)(C)NC(=O)[C@@H](N)Cc1c[nH]cn1)[C@@H](C)O)C(C)C)C(C)C)C(=O)N[C@@H](C)C(=O)N[C@@H](CC(N)=O)C(=O)N[C@H](C(N)=O)[C@@H](C)O` [Peptide 367] (H-H[Aib]HGS[αMeF]TSDVSK[αMeF]LDSRAAQDFVK([AEEA-AEEA-γGlu-C20 diacid])WIANT-NH2; N-terminus assumed): in data set [6], the amount remaining at 0.25 h, 125 µM is 0% and the fraction remaining at 0.5 h, 125 µM is 0%. Also, the “% Relative Potency Ratio” value in data set [4] was 1.0. In addition, the negative-log EC50 (pEC50) in data set [4] (cAMP, CHO cells, 0.1% BSA) was 9.86. The pEC50 in data set [5] (cAMP, CHO cells, 0.1% BSA) was 10.14.
For `CCCCCCCCCCCCCCCCCC(=O)N[C@@H](CCC(=O)N[C@@H](CCC(=O)NCCOCCOCCC(=O)NCCOCCOCCC(=O)NCCCC[C@H](NC(=O)[C@H](CO)NC(=O)[C@H](CC(=O)O)NC(=O)[C@H](CC(C)C)NC(=O)[C@@H](NC(=O)[C@H](CCCCN)NC(=O)[C@H](CO)NC(=O)[C@@H](NC(=O)[C@H](CC(=O)O)NC(=O)[C@H](CO)NC(=O)[C@@H](NC(=O)[C@](C)(Cc1ccccc1)NC(=O)[C@H](CO)NC(=O)CNC(=O)[C@H](CCC(N)=O)NC(=O)[C@H](CO)NC(=O)[C@@H](N)Cc1c[nH]cn1)[C@@H](C)O)C(C)C)C(c1ccccc1)c1ccccc1)C(=O)N[C@@H](C)C(=O)N[C@@H](C)C(=O)N[C@@H](CCC(N)=O)C(=O)N[C@@H](CC(=O)O)C(=O)N[C@@](C)(Cc1ccccc1)C(=O)N[C@H](C(=O)N[C@@H](CCC(=O)O)C(=O)NC(C)(C)C(=O)N[C@H](C(=O)N[C@@H](C)C(=O)N[C@@H](CC(N)=O)C(=O)N[C@H](C(N)=O)[C@@H](C)O)[C@@H](C)CC)C(C)C)C(=O)O)C(=O)O` [Peptide 49] (H-HSQGS[αMeF]TSDVSK[Dip]LDSK([PEG2-PEG2-γGlu-γGlu-Stearoyl])AAQD[αMeF]VE[Aib]IANT-NH2; N-terminus assumed), the “24 hr % Vehicle Food Intake” value in data set [1] is on record as 69.2%. In data set [2], this compound yielded an amount remaining at 5 min, 3.3 mg/mL of 97%; a share remaining at 10 min, 3.3 mg/mL of 96%; an amount remaining at 0.25 h, 3.3 mg/mL of 95%; a fraction remaining at 0.5 h, 3.3 mg/mL of 90%. For the same compound, the “GLP-1R KO % glucose change 120 min” value in data set [3] (setting [10]) worked out at 193.3%. In addition, the “GLP-1R KO % glucose change 120 min” value in data set [3] (setting [11]) came out at 154.3%. Besides, in the data set with wildtype (WT) mice (setting [10]), the “WT % glucose change 120 min” value was −1.2%. In addition, the “WT % glucose change 120 min” value in the data set with wildtype (WT) mice (setting [11]) is reported as 16.8%. Further, the negative logarithm of the EC50 (pEC50) in data set [4] (setting [8]) is 11.76. Further, the “% Relative Potency Ratio” value in data set [4] (Table 6) was 2.0. Moreover, the negative logarithm of the EC50 (pEC50) in data set [5] (setting [9]) was 11.76.
